Experimental data taken from patent US11124537B2, “Inhibitors of glucocorticoid receptor” (ORIC Pharmaceuticals, Inc., priority 2015, dated 2021).

Experiments:
[1] = tested on: AR; assay: In Vitro AR Agonism Assay; assay type: cell-based; settings: LNAR reporter cell line; for Relative Maximum Response to Mifepristone: 10% CSS, 18-24 hrs, ratio of maximum response to that of Mifepristone (set to 1)
Protocol: Example 5: In Vitro AR Agonism Assay
The AR agonism assay was done in the LNAR reporter cell line which has overexpressed AR and 4XARE-Luc genes. This cell line is sensitive to even minor partial AR agonism activity in hormone-deprived media (CSS). The assays were done in RPMI (without phenol red)+10% CSS using 6000 LNAR cells/well in 384-well plates and compounds were incubated with cells in […] incubator for 18-24 hrs. OneGlo reagent (25 uL/well) was added and plates were read with luminometer within 3 minutes.
To gauge the AR partial agonism activity, Mifepristone is included as a standard in the assay. AR agonism assay results are quantified by determining the ratio of the maximum response of individual compounds to the maximum response of Mifepristone (arbitrarily set to 1). Values of Table 4 are reported as Relative Maximum Response to Mifepristone. This general trend of AR agonism was shown for the class of compounds described herein.

[2] = target: GR (Homo sapiens (Human), UniProt P04150); assay: In Vitro GR Luciferase Reporter Assay; assay type: cell-based; settings: CHO-K1-GR-MMTV-Luc reporter cells, antagonist assay, 10 nM Dexamethasone, 18-24 hours
Chain of GR (P04150 whole entry): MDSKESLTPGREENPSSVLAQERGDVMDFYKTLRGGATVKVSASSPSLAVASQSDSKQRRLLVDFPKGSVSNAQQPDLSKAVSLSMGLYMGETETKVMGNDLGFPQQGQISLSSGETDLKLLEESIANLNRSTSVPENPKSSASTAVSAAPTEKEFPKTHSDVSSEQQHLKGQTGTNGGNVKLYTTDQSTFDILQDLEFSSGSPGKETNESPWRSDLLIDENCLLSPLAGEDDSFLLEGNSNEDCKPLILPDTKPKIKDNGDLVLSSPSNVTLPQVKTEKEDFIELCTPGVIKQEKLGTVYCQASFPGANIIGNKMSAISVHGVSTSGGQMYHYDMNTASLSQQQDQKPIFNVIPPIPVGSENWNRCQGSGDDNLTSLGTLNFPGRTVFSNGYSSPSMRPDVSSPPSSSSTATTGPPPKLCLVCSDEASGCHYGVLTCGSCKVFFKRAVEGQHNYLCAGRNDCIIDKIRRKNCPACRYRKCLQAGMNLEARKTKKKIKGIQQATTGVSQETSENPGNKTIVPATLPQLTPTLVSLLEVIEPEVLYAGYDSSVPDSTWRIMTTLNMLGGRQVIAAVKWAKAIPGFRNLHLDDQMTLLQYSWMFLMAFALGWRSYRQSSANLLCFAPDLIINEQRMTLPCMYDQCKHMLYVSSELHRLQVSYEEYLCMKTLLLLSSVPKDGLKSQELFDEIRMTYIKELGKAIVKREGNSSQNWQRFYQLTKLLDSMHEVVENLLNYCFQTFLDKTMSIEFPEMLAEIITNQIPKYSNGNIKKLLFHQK
Text: Example 4: In Vitro GR Luciferase Reporter Assay
Cell Line: CHO-K1-GR-MMTV-Luc reporter cells
Culture Media: DMEM (with phenol red)+10% FBS
Assay Media: DMEM (without phenol red)+10% CSS
Culture CHO-K1-GR-MMTV-Luc reporter cells in 15 cm plates in Culture Media at conditions less than 90% confluence.
Prepare 200×DMSO 1:5 serial dilutions of control and test compounds in 96-well non-sterile V bottom plate in DMSO, 8 serial dilutions for each compound.
Prepare 5× Assay Media diluted compound serial dilutions in 96-well non-sterile V bottom plate: Add 97.5 uL/well of Assay Media into 96-well then add 2.5 ul of 200× concentration of compounds and mix well.
Seed cells for Antagonist Assay: […] CHO-K1-GR-MMTV-Luc reporter cells were seeded in a Corning 3707 flat clear bottom 384-well white TC plate in 20 ul of Assay Media containing 12.5 nM Dexamethasone (final concentration=10 nM).
Add compounds: 5 ul of assay media diluted compounds were added to appropriate wells and followed a quick spin (1000 rpm, 10 sec) to bring media and cells to the bottom of plate. The plates were covered with SealMate film to avoid evaporation and placed in 37° C. incubator for approximately 18-24 hours.
Read plates: Equilibrate appropriate amount of Promega OneGlo luciferase reagent to room temperature. Remove the plates from incubator and add 25 uL of OneGlo reagent/well by multiple channel pipette and read the plates with Tecan F500 luminometer within 3 minutes.
The ability of the compounds disclosed herein to inhibit GR activity was quantified and the respective IC50 value was determined. Table 3 provides the cellular IC50 values of various substituted steroidal compounds disclosed herein.

| Compound | Relative Maximum Response to Mifepristone [1] | other results |
| --- | --- | --- |
| CC(C)(C)C#C[C@]1(O)CC[C@H]2[C@@H]3CCC4=CC(=O)CCC4=C3[C@@H](c3ccc(N4CCN(S(C)(=O)=O)CC4)cc3)C[C@@]21C [drawing 382] | B (B: >0.4) |  |
| CC(C)(C)C#C[C@]1(O)CC[C@H]2[C@@H]3CCC4=CC(=O)CCC4=C3[C@@H](c3ccc(N4CCCC4)cc3)C[C@@]21C [drawing 368] | A (A: ≤0.4) |  |
| COC(C)(C)C#C[C@]1(O)CC[C@H]2[C@@H]3CCC4=CC(=O)CCC4=C3[C@@H](c3ccc(N4CCCC4)cc3)C[C@@]21C [drawing 380] | A (A: ≤0.4) |  |
| CN(C)c1ccc([C@H]2C[C@@]3(C)[C@@H](CC[C@@]3(O)C#Cc3ccccc3)[C@@H]3CCC4=CC(=O)CCC4=C32)cc1 [drawing 366] | A (A: ≤0.4) |  |
| CC(C)(C)C#C[C@]1(O)CC[C@H]2[C@@H]3CCC4=CC(=O)CCC4=C3[C@@H](c3cccc(C4CC4)c3)C[C@@]21C [drawing 369] | A (A: ≤0.4) |  |
| CN(C)c1ccc([C@H]2C[C@@]3(C)[C@@H](CC[C@@]3(O)C#CC3CC3)[C@@H]3CCC4=CC(=O)CCC4=C32)c(F)c1F [drawing 375] | A (A: ≤0.4) |  |
| CC#C[C@]1(O)CC[C@H]2[C@@H]3CCC4=CC(=O)CCC4=C3[C@@H](c3ccc(N(C)C)cc3)C[C@@]21C [Mifepristone, reference compound] |  | partial AR agonism ([1]; in concentrations as low as 10 nM): strong partial AR agonism |
| CC(C)(C)C#C[C@]1(O)CC[C@H]2[C@@H]3CCC4=CC(=O)CCC4=C3[C@@H](c3ccc4c(c3)OCO4)C[C@@]21C [drawing 378] | A (A: ≤0.4) |  |
| CC(C)(C)C#C[C@]1(O)CC[C@H]2[C@@H]3CCC4=CC(=O)CCC4=C3[C@@H](c3ccc(N4CCC[C@@H]4CO)cc3)C[C@@]21C [drawing 385] | A (A: ≤0.4) |  |
| CN(C)c1ccc([C@H]2C[C@@]3(C)[C@@H](CC[C@@]3(O)C#CC3(C)COC3)[C@@H]3CCC4=CC(=O)CCC4=C32)cc1 [drawing 384] | A (A: ≤0.4) |  |
| Cc1cc([C@H]2C[C@@]3(C)[C@@H](CC[C@@]3(O)C#CC(C)(C)C)[C@@H]3CCC4=CC(=O)CCC4=C32)ccc1N(C)C [drawing 371] | A (A: ≤0.4) |  |
| CN(C)c1cc(F)c([C@H]2C[C@@]3(C)[C@@H](CC[C@@]3(O)C#CC(C)(C)C)[C@@H]3CCC4=CC(=O)CCC4=C32)cc1F [drawing 376] | A (A: ≤0.4) |  |
| CC(C)(C)C#C[C@]1(O)CC[C@H]2[C@@H]3CCC4=CC(=O)CCC4=C3[C@@H](c3ccc(C(C)(C)C)cc3)C[C@@]21C [drawing 367] | A (A: ≤0.4) |  |
| CCC#C[C@]1(O)CC[C@H]2[C@@H]3CCC4=CC(=O)CCC4=C3[C@@H](c3ccc4c(c3)OCCO4)C[C@@]21C [drawing 377] | A (A: ≤0.4) |  |
| Cc1c(F)cc([C@H]2C[C@@]3(C)[C@@H](CC[C@@]3(O)C#Cc3ccc(S(C)(=O)=O)cc3)[C@@H]3CCC4=CC(=O)CCC4=C32)cc1F [drawing 372] | A (A: ≤0.4) |  |
| CC(C)C#C[C@]1(O)CC[C@H]2[C@@H]3CCC4=CC(=O)CCC4=C3[C@@H](c3c(F)cc(N4CCOCC4)cc3F)C[C@@]21C [drawing 373] | A (A: ≤0.4) |  |
| COC1CN(c2ccc([C@H]3C[C@@]4(C)[C@@H](CC[C@@]4(O)C#CC(C)(C)C)[C@@H]4CCC5=CC(=O)CCC5=C43)cc2)C1 [drawing 381] | A (A: ≤0.4) |  |
| CN(C)c1ccc([C@H]2C[C@@]3(C)[C@@H](CC[C@@]3(O)C#CC(C)(C)C)[C@@H]3CCC4=CC(=O)CCC4=C32)cc1F [drawing 370] | A (A: ≤0.4) |  |
| CN(C)c1ccc([C@H]2C[C@@]3(C)[C@@H](CC[C@@]3(O)C#Cc3ccc(S(C)(=O)=O)cc3)[C@@H]3CCC4=CC(=O)CCC4=C32)cc1 [drawing 383] | B (B: >0.4) |  |
| CC(C)C#C[C@]1(O)CC[C@H]2[C@@H]3CCC4=CC(=O)CCC4=C3[C@@H](c3cc(F)c(C(C)C)c(F)c3)C[C@@]21C [drawing 374] | A (A: ≤0.4) |  |
| C[C@]12C[C@H](c3ccc4c(c3)OCO4)C3=C4CCC(=O)C=C4CC[C@H]3[C@@H]1CC[C@@]2(O)C#Cc1ccc(S(C)(=O)=O)cc1 |  | IC50 [2]: ≤ 100 nM |
| C[C@@H]1C[C@H]2[C@@H]3CCC4=CC(=O)CCC4=C3[C@@H](c3ccc(N(C)C)cc3)C[C@]2(C)[C@]1(O)C#CC(C)(C)C [drawing 379] | A (A: ≤0.4) |  |
| COC(C)(C)C#C[C@]1(O)CC[C@H]2[C@@H]3CCC4=CC(=O)CCC4=C3[C@@H](c3ccc(N4CCCC4)cc3)C[C@@]21C [drawing 340] |  | IC50 [2]: ≤ 100 nM |
| CC(C)N(C)c1ccc([C@H]2C[C@@]3(C)[C@@H](CC[C@@]3(O)C#CC3(C)COC3)[C@@H]3CCC4=CC(=O)CCC4=C32)cc1 |  | IC50 [2]: ≤ 100 nM |
| CC(C)(C)C#C[C@]1(O)CC[C@H]2[C@@H]3CCC4=CC(=O)CCC4=C3[C@@H](c3cccc(C4CC4)c3)C[C@@]21C [drawing 279] |  | IC50 [2]: > 100 nM |
| CC(C)(C)C#C[C@]1(O)CC[C@H]2[C@@H]3CCC4=CC(=O)CCC4=C3[C@@H](c3ccc(N4CCC[C@@H]4CO)cc3)C[C@@]21C [drawing 364] |  | IC50 [2]: ≤ 100 nM |
| CN(C)c1cc(F)c([C@H]2C[C@@]3(C)[C@@H](CC[C@@]3(O)C#CC(C)(C)C)[C@@H]3CCC4=CC(=O)CCC4=C32)c(F)c1 |  | IC50 [2]: ≤ 100 nM |
| Cc1ccc([C@H]2C[C@@]3(C)[C@@H](CC[C@@]3(O)C#CC3CC3)[C@@H]3CCC4=CC(=O)CCC4=C32)cc1F |  | IC50 [2]: ≤ 100 nM |
